Assay results reported in patent US20130022612A1, “METHODS AND COMPOSITIONS FOR MALARIA PROPHYLAXIS” (priority 2004, published 2013).

What was measured:
[1] = test system: CSP processing in P. falciparum sporozoites; experiment: Pulse-chase metabolic labeling of CSP processing, P. falciparum sporozoites; type: cell-based, Plasmodium falciparum; settings: ninety minute chase
Method: P. berghei sporozoites were incubated in Dulbecco's Modified Eagle Medium (DMEM; Invitrogen, Carlsbad, Calif.) without cysteine (Cys) and methionine (Met), containing 1% BSA and […] L-[35 S]-Cys/Met (Pro-Mix, Amersham Pharmacia) in a total volume of 200 μl for one hour at 28° C. They were then washed and resuspended in DMEM/BSA containing unlabeled Cys/Met at 28° C. for the indicated time in the presence or absence of the indicated protease inhibitor. Sporozoites were then lysed and CSP was immunoprecipitated and analyzed by autoradiography as outlined below.
For experiments with P. falciparum, a 10% SDS-polyacrylamide gel was used. Gels were fixed in 25% methanol/12% acetic acid, enhanced with Amplify (Amersham Pharmacia) for 30 minutes, dried, and exposed to film.
P. berghei sporozoites were metabolically labeled in DMEM without Cys/Met, 1% BSA and 400 μCi/ml L-[^355]-Cys/Met for 1 hour at 28° C. and then kept on ice or chased at 28° C. for the indicated times. Details of this procedure are outlined in (Coppi et al., 2005). To investigate the kinetics of processing in the presence of hepatocytes, sporozoites were labeled as above, chased at 28° C. for 1 hour and then centrifuged (300×g) onto glass coverslips with Hepa 1-6 cells and incubated at 37° C. for 5, 15 or 30 minutes. […]

[2] = test system: P. falciparum sporozoites; experiment: Sporozoite invasion assay, P. falciparum on HepG2 cells; type: cell-based, Plasmodium falciparum; settings: sporozoites preincubated with E-64, HepG2 cells
Method: %invasion=total sporozites−extracellular sporozites×100/total sporozites
Hepa 1-6 cells were seeded in Permanox eight-chambered Lab-Tek wells (2.5×10^5/well) and allowed to grow overnight. On the day of the experiment, 5×10^5 P. berghei wild type, RCon or ΔRI sporozoites were added per well. Sporozoites pre-incubated with 10 μM E-64d for 15 minutes at 25° C. were used as controls. For experiments testing the effect of anti-repeat region antibodies on invasion, HepG2 cells were used and P. berghei or P. falciparum sporozoites were added to the cells in the presence of the indicated antibody. After 1 hour at 37° C., cells were washed, fixed, and sporozoites were stained with a double staining assay that distinguishes intracellular from extracellular sporozoites (Renia et al., 1988). To quantify EEF development, cells with sporozoites were grown for an additional 2 days after which they were fixed with methanol, stained with mAb 2E6 followed by goat anti-mouse Ig conjugated to FITC. In all assays, at least 50 fields per well were counted and each point was performed in triplicate.

[3] = test system: P. berghei sporozoites; experiment: Propidium iodide toxicity assay on sporozoites; type: cell-based, Plasmodium berghei; settings: for toxicity to sporozoites (propidium iodide): ten minutes
Method: When sporozoites were incubated with specific inhibitors, their concentrations were as follows: 10 […] E-64; 1 mM phenylmethylsulfonyl fluoride (PMSF); 0.3 mM aprotinin; 100 mM 3,4 DCl; 75 mM leupeptin; 100 mM TLCK; 1 mM pepstatin; 1 mM 1,10 phenanthroline; 5 mM EDTA; 0.5% sodium azide. To check for toxicity by propidium iodide (PI) staining, P. berghei sporozoites were incubated in the presence or absence of the various protease inhibitors for two hours at 28° C., PI was then added to a final concentration of […] for five minutes at 28° C. The sporozoites were washed and viewed under a fluorescent microscope.
P. berghei sporozoites were incubated with the indicated concentrations of allicin for ten or sixty minutes at 28° C., washed with DMEM, and then incubated with 1 μg/ml propidium iodide for five minutes at 25° C. The number of fluorescent sporozoites in each sample was counted using a Nikon Eclipse E600 microscope. Control samples consisted of sporozoites that were incubated for sixty minutes at 28° C. in DMEM without allicin and sporozoites that were heat killed at 65° C. for ten minutes.

Row | Structure (SMILES) | effect on CSP processing [1] | effect on invasion by P. falciparum sporozoites [2] | number of fluorescent (propidium iodide) sporozoites ([3]; 50 μM allicin 10 minutes, then 4.2 μM for 50 minutes) | increase in number of sporozoites taking up propidium iodide ([3]; 50 μM allicin, one hour) [fold] | toxicity to sporozoites (propidium iodide) ([3]; 50 μM allicin) | percentage of sporozoites that took up propidium iodide ([3]; 1 or 10 μM allicin for up to one hour) | toxicity to sporozoites (propidium iodide) ([3]; allicin concentrations higher than 50 μM)
1 | CC(C)C[C@H](NC(=O)[C@H]1O[C@@H]1C(=O)O)C(=O)NCCCCN=C(N)N (relative stereo) [E-64, L-trans-epoxysuccinyl-leucylamide-[4-guanido]-butane] | inhibited CSP processing | significantly inhibited | – | – | – | – | –
2 | C=CCS[S+]([O-])CC=C (stereo not shown) [allicin] | – | – | did not increase the number of fluorescent sporozoites compared to the untreated control | 1.5 | did not kill sporozoites | no different from the untreated control | toxic to the sporozoites even after only ten minutes of exposure
